Like-named read-outs stand apart in the source and are kept apart here. One block for each compound: values may come before it.
Tests used:
in vitro = conditions: human, cells or culture medium
Experimental: (§1) Human mesenchymal stem cells (hMSCs) (Rooster Bio, LOT 310368) at passage 3 were seeded into 24 well plates at a seeding density of 75,000 cells per well in 1mL of RoosterBasal-MSC-CC (RoosterBio, SU-022) containing RoosterBooster-MSC (RoosterBio SU-003). After 24 hour the media was changed, and peptide library AcβA-RGEFV-X-NH2 was added to the cell media for a final concentration of 37 μM per peptide. Each Library was tested in three times, each in triplicate with three technical repeats for a total of 27 wells. 40 μl samples were collected from the media at hours 0, 1, 4, 8, 24, and 48 in duplicate.
(§2) In-between timepoints, one set of samples was loaded directly within the LC-MS and measured as soon as possible, then stored at 4°C. The second set of samples was immediately frozen at −80°C. After 48 hours, samples were kept frozen and thawed just prior to LC-MS, and 4μL of acetic acid was added to each well. After three weeks the samples were tested again.
(§3) From each sample, 10 μL of crude solution was introduced by the LC-MS through an Thermo Scientific Vanquish LC System (Thermo Fisher Scientific) which outputted to a Thermo Scientific LTQ XL Linear Ion Trap Mass Spectrometer (Thermo Fisher Scientific). The sampled mixture was trapped on a column (ProntoSIL C18 AQ, 120 Å, 3 μm, 2.0 × 50 mm HPLC Column, PN 0502F184PS030, MAC-MOD Analytical Inc.). The samples were loaded onto the column with a solvent containing acetonitrile/water, 5:95 (v/v) containing 1% acetic acid at a flow rate of 300 μL/min and held for one minute. The sample was then eluted from the column with a linear gradient of 5–40% Solvent B (1% acetic acid in acetonitrile) at the same flow rate for five minutes. This was followed by a 1 min ramp up to 100% solvent B, where it was re-equilibrated with solvent A (1% acetic acid) to 5% solvent B over the course of 1 min and held there for 2 min. The column temperature was a constant 29 °C. The mass spectrometer was operated in positive ion mode. Using a heated ESI, the source voltage was set to 4.1 kV, and the capillary temperature was 350 °C.
(§4) Data analysis was performed on Xcalibur Software (Thermo Scientific). Peptides were identified automatically using the Thermo Xcalibur Processing Setup window where the mass (m/z) ±0.5 AMU and expected retention times for each quantified peptide were inputted. This was later used to isolate individual peptide species from the total ion count (TIC) trace using the Thermo Xcalibur Quan Setup window, where the area under the curve was calculated and visually inspected for accuracy. […] The integrated peak area of the peptide of interest was divided by the NH2-βF(βA)6-Amide internal standard to create an area ratio. Relative amounts of a peptide of peptide were then calculated by normalized all values to their corresponding time zero area ratio. Calculated data was visualized using RStudio.

[1] = Retention on the reverse-phase LC-MS column; format: physicochemical
Experimental: The column temperature was a constant 29 °C. The mass spectrometer was operated in positive ion mode.
Since salts from cell culture media adversely impact ionization and foul the MS, we send the mobile phase from the first 1.5 minutes of LCMS to waste prior to ionization to prevent salt accumulation in the mass spectrometer. Accordingly, peptides and internal standards which elute before the gradient begins are not suitable for quantification since they will not be analyze by the mass spectrometer. N-terminal acetylation, the addition of a phenylalanine, or β-homophenylalanine improves retention time by increasing they hydrophobicity of the polypeptide, which increases the affinity to the column (Figure 2A). After 48 hours of degradation, three internal standards candidates had both good retention times and less than 10% degradation (Figure 2B): 1) Ac-βA6-Amide, 2) NH2-βFβA6-Amide, and 3) Ac-FβA6-Amide. The ability of molecules to be identified in mass spectrometry is dependent on their propensity to become ionized, and the Ac-βA6-Amide standard was excluded due to weak signal intensity of the LC-MS (not shown), likely due to the lack of charged groups. […]

[2] = human, cells or culture medium
Experimental: as §1, §2, §3, §4

[3] = test system: human mesenchymal stem cells (hMSCs)
Experimental: as §1, §2, §3, §4

metabolised at 48 h (in vitro): < 10%
Structure (SMILES): CC(=O)N[C@@H](Cc1ccccc1)C(=O)NCCC(=O)NCCC(=O)NCCC(=O)NCCC(=O)NCCC(=O)NCCC(N)=O [Ac-FβA6-Amide]

metabolised at 48 h (in vitro): < 10%
Structure (SMILES): CC(=O)NCCC(=O)NCCC(=O)NCCC(=O)NCCC(=O)NCCC(=O)NCCC(N)=O [Ac-βA6-Amide]

Structure (SMILES): NCCC(=O)NCCC(=O)NCCC(=O)NCCC(=O)NCCC(=O)NCCC(N)=O [NH2-(βA)6-Amide]
affinity to the LC-MS column (retention) ([1]; ProntoSIL C18 AQ, gradient begins after 1 min at 5% B, first 1.5 minutes sent to waste): eluting before the chromatography gradient begins

metabolised at 48 h [2]: < 10%
remaining at 48 h [2]: > 92%
peptide elution time ([1]; ProntoSIL C18 AQ 2.0 x 50 mm, 5% B held 1 min then 5-40% acetonitrile (1% acetic acid) over 5 min, 300 μL/min, 29 °C, retention tied to hydrophobicity and column affinity): 2.68 min
time stable in cell culture [3]: 48 h
Structure (SMILES): NC(=O)CCNC(=O)CCNC(=O)CCNC(=O)CCNC(=O)CCNC(=O)CCNC(=O)C[C@@H](N)Cc1ccccc1 [NH2-βFβA6-Amide]
